Experimental findings from patent US10376520B2, “Methods for the treatment of cardiovascular disorders” (Galapagos NV, priority 2015, dated 2019) are described below.

The assay has as its system healthy volunteers, and patients suffering from inflammatory diseases. The experiment in a line: Lipid profile after oral administration of Compound 1 in humans (summary over the studies). It counts as in vivo, human. As to the method: When Compound 1 was administered orally in humans, an unexpected change in the lipid profile was observed.
In contrast, whereas Compound 1 raised the low [total cholesterol] levels, an unexpected disproportionate rise in blood of [HDL] vs [LDL] was observed. In particular, [HDL] levels of 5-23% compared to initial levels were seen. Moreover, this rise in [HDL] was substantially higher than the corresponding increases in [LDL] levels. In particular between 1.1 and 4 fold higher increases in [HDL] vs. [LDL] were seen.
Typically, in a recent treatment study with Tofacitinib, a JAK inhibitor for 6 weeks at a dose of 10 mg bid in RA patient, the atherogenic index was unchanged before and after treatment at about 3.5 (Charles-Schoeman et al., 2015) thus leaving the patient at an increased cardiovascular risk before and after treatment.
Furthermore, this effect was sustained over at least 12 weeks, and at least 24 weeks and were observed over a dose range of 50-200 mg administered either twice daily (b.i.d) or once a day (q.d.).
Additionally, this effect was seen both in healthy volunteers, and patients suffering from inflammatory diseases (for example RA and Crohn's disease).

For the molecule `O=C(Nc1nc2cccc(-c3ccc(CN4CCS(=O)(=O)CC4)cc3)n2n1)C1CC1` [Compound 1, cyclopropanecarboxylic acid {5-[4-(1,1-dioxo-thiomorpholin-4-ylmethyl)-phenyl]-[1,2,4]triazolo[1,5-a]pyridin-2yl}-amide], the “rise in [HDL] levels compared to initial levels” value (administered orally in humans) is on record as 5-23%. Moreover, the atherogenic index entry (doses ranging from 50 mg to 200 mg (once or twice daily) for a period of at least 4 weeks) is given as “drop of the atherogenic index”.
